Results taken from ChEMBL document CHEMBL1201862, “PubChem BioAssay data set” (2004).
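Method: 48-hour compound exposure of cells in 96-well plates, five concentrations, linear interpolation of endpoints. The concentration for 50% growth inhibition is given as GI50.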 Activity calls are given as the source filed them. Cut-off read from the data, not from the text of the source: active = GI50 up to about 1.1 µM and inactive = higher.

Legend:
Experiment in all cases: NCI anticancer screen, dose series, 48 h
NCI-H522 = system: NCI-H522
MDA-N = system: MDA-N
NCI-H23 = system: NCI-H23
MOLT-4 = system: MOLT-4
A549 = system: A549
HCT-15 = system: HCT-15
MDA-MB-435 = system: MDA-MB-435
Hs-578T = system: Hs-578T
CCRF-CEM = system: CCRF-CEM
PC-3 = system: PC-3
HCC 2998 = system: HCC 2998
A498 = system: A498
SNB-19 = system: SNB-19
CAKI-1 = system: CAKI-1
SF-539 = system: SF-539
LOX IMVI = system: LOX IMVI
OVCAR-4 = system: OVCAR-4
HCT-116 = system: HCT-116
SK-MEL-5 = system: SK-MEL-5
HL-60 = system: HL-60
IGROV-1 = system: IGROV-1
NCI-H460 = system: NCI-H460
NCI-H226 = system: NCI-H226
HOP-92 = system: HOP-92
SF-268 = system: SF-268
RPMI-8226 = system: RPMI-8226
MCF7 = system: MCF7
UACC-62 = system: UACC-62
T47D = system: T47D
TK-10 = system: TK-10
MDA-MB-231 = system: MDA-MB-231
SN12C = system: SN12C
UACC-257 = system: UACC-257
NCI/ADR-RES = system: NCI/ADR-RES
OVCAR-8 = system: OVCAR-8
KM12 = system: KM12
SK-OV-3 = system: SK-OV-3
HOP-62 = system: HOP-62
U-251 = system: U-251
SF-295 = system: SF-295
SW-620 = system: SW-620
Malme-3M = system: Malme-3M
HT-29 = system: HT-29
K562 = system: K562
COLO 205 = system: COLO 205
RXF 393 = system: RXF 393
SNB-75 = system: SNB-75
M14 = system: M14
OVCAR-3 = system: OVCAR-3
786-0 = system: 786-0
DU-145 = system: DU-145
SK-MEL-2 = system: SK-MEL-2
UO-31 = system: UO-31
SK-MEL-28 = system: SK-MEL-28
ACHN = system: ACHN
EKVX = system: EKVX
OVCAR-5 = system: OVCAR-5
SR = system: SR

Measured: GI50

CC(=O)O[C@H]1C(=O)[C@@]2(C)C(C(OC(=O)c3ccccc3)[C@]3(O)CC(OC(=O)[C@H](OC(=O)CCC(=O)O)C(NC(=O)c4ccccc4)c4ccccc4)C(C)=C1C3(C)C)C1(OC(C)=O)COC1C[C@@H]2O (stereo partly drawn)
0.995 µM: HCT-15
inactive: CAKI-1 5.3 µM | OVCAR-4 31.8 µM
active: NCI-H522 < 0.01 µM | MDA-N < 0.01 µM | NCI-H23 0.0193 µM | MOLT-4 < 0.0153 µM | A549 0.0366 µM | MDA-MB-435 < 0.01 µM | Hs-578T < 0.0175 µM | CCRF-CEM < 0.01 µM | PC-3 < 0.0128 µM | HCC 2998 0.0302 µM | A498 < 0.0118 µM | SNB-19 0.0506 µM | SF-539 < 0.01 µM | LOX IMVI < 0.0105 µM | HCT-116 < 0.01 µM | SK-MEL-5 < 0.0159 µM | HL-60 < 0.01 µM | IGROV-1 < 0.0119 µM | NCI-H460 < 0.0132 µM | NCI-H226 0.0122 µM | HOP-92 0.656 µM | SF-268 0.0252 µM | RPMI-8226 < 0.01 µM | MCF7 < 0.01 µM | UACC-62 < 0.0113 µM | T47D 0.0272 µM | TK-10 0.136 µM

COc1ccc(Nc2c[nH]c(=O)[nH]c2=O)cc1
inactive: MDA-MB-231 > 100 µM | NCI-H522 > 100 µM | MDA-N > 100 µM | SN12C > 100 µM | UACC-257 > 100 µM | NCI-H23 > 100 µM | MOLT-4 > 100 µM | A549 > 100 µM | MDA-MB-435 > 100 µM | NCI/ADR-RES > 100 µM | OVCAR-8 > 100 µM | CCRF-CEM > 100 µM | PC-3 > 100 µM | HCC 2998 > 100 µM | A498 > 100 µM | SNB-19 > 100 µM | KM12 > 100 µM | SK-OV-3 > 100 µM | HOP-62 > 100 µM | U-251 > 100 µM | CAKI-1 > 100 µM | SF-295 > 100 µM | SF-539 > 100 µM | LOX IMVI > 100 µM | SW-620 > 100 µM | Malme-3M > 100 µM | OVCAR-4 > 100 µM | HT-29 > 100 µM | HCT-116 > 100 µM | K562 > 100 µM | COLO 205 > 100 µM | RXF 393 > 100 µM | SK-MEL-5 > 100 µM | HL-60 > 100 µM | SNB-75 > 100 µM | IGROV-1 > 100 µM | M14 > 100 µM | OVCAR-3 > 100 µM | 786-0 > 100 µM | DU-145 > 100 µM | SK-MEL-2 > 100 µM | NCI-H226 > 100 µM | HOP-92 > 100 µM | UO-31 > 100 µM | RPMI-8226 > 100 µM | SK-MEL-28 > 100 µM | MCF7 > 100 µM | UACC-62 > 100 µM | T47D > 100 µM | ACHN > 100 µM | TK-10 > 100 µM | EKVX > 100 µM
> 100 µM: HCT-15

N#Cc1[nH]c(=O)n(-c2ccc([N+](=O)[O-])cc2)c1N
inactive: MDA-MB-231 > 10 µM | NCI-H522 > 10 µM | MDA-N > 10 µM | SN12C > 10 µM | UACC-257 > 10 µM | NCI-H23 > 10 µM | MOLT-4 > 10 µM | A549 > 10 µM | MDA-MB-435 > 10 µM | NCI/ADR-RES > 10 µM | OVCAR-8 > 10 µM | Hs-578T > 10 µM | CCRF-CEM > 10 µM | PC-3 > 10 µM | HCC 2998 > 10 µM | A498 > 10 µM | SNB-19 > 10 µM | SK-OV-3 > 10 µM | HOP-62 > 10 µM | U-251 > 10 µM | SF-295 > 10 µM | SF-539 > 10 µM | OVCAR-5 > 10 µM | LOX IMVI > 10 µM | SW-620 > 10 µM | SR > 10 µM | Malme-3M > 10 µM | OVCAR-4 > 10 µM | HT-29 > 10 µM | HCT-116 > 10 µM | K562 > 10 µM | COLO 205 > 10 µM | RXF 393 > 10 µM | SK-MEL-5 > 10 µM | HL-60 > 10 µM | SNB-75 > 10 µM | IGROV-1 > 10 µM | M14 > 10 µM | OVCAR-3 > 10 µM | 786-0 > 10 µM | DU-145 > 10 µM | NCI-H460 7.64 µM | SK-MEL-2 > 10 µM | NCI-H226 > 10 µM | HOP-92 > 10 µM | SF-268 > 10 µM | UO-31 > 10 µM | RPMI-8226 > 10 µM | SK-MEL-28 > 10 µM | UACC-62 > 10 µM | T47D > 10 µM | ACHN > 10 µM | TK-10 > 10 µM | EKVX > 10 µM
> 10 µM: HCT-15

CCn1ncc(N=O)c1N
> 100 µM: HCT-15
inactive: SN12C > 100 µM | UACC-257 > 100 µM | MOLT-4 > 100 µM | MDA-MB-435 > 100 µM | NCI/ADR-RES > 100 µM | OVCAR-8 > 100 µM | PC-3 > 100 µM | HCC 2998 56.2 µM | HOP-62 > 100 µM | CAKI-1 > 100 µM | SF-295 > 100 µM | OVCAR-5 > 100 µM | LOX IMVI > 100 µM | SW-620 > 100 µM | SR > 100 µM | HT-29 > 100 µM | SK-MEL-5 > 100 µM | OVCAR-3 > 100 µM | 786-0 > 100 µM | DU-145 > 100 µM | NCI-H460 > 100 µM | UO-31 > 100 µM | SK-MEL-28 > 100 µM | MCF7 > 100 µM | UACC-62 > 100 µM | T47D > 100 µM | ACHN > 100 µM | TK-10 > 100 µM | EKVX > 100 µM
